What was measured:
Assay type in all cases: cell-based
human TLR7 = target: T1, human TLR7 (Homo sapiens, UniProt Q9NYK1); assay: TLR7 inhibition reporter assay (HEK-Blue SEAP); conditions: cells overexpressing human TLR7, SEAP reporter, stimulated with gardiquimod 7.5 μM, 22 hour incubation
T1 construct: host or cells: HEK-Blue cells
T1 sequence (Q9NYK1 27-1049): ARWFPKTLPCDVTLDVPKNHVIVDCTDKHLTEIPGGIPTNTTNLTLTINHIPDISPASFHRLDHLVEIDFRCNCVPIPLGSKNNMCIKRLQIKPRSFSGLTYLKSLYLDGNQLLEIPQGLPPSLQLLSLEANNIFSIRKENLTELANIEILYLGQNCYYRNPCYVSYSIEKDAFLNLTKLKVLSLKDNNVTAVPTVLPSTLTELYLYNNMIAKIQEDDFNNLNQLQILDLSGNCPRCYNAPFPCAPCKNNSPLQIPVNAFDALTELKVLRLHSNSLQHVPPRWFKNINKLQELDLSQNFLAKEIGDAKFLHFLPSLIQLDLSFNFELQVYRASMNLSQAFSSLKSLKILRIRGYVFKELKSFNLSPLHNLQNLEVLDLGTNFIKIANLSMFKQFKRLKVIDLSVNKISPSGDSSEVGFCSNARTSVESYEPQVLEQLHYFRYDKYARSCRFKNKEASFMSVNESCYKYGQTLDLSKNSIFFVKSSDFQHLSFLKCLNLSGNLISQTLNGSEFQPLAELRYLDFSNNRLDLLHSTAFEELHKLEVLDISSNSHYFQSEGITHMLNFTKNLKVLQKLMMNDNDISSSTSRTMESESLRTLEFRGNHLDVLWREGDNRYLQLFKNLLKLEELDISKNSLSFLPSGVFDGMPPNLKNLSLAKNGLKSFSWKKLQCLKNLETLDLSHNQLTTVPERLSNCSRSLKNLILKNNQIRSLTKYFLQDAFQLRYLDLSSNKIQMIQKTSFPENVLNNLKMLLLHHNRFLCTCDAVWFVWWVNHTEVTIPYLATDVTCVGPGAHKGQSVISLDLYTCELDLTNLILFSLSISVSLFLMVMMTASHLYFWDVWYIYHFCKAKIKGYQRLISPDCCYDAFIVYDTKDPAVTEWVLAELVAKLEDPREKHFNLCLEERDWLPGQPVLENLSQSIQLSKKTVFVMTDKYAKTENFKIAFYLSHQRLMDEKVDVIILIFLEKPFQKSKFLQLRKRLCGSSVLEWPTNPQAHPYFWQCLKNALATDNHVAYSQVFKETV
Method: (§1) TLR7/8/9 Inhibition Reporter Assays
(§2) […] (Invivogen) overexpressing human TLR7, TLR8 or TLR9 receptors were used for screening inhibitors of these receptors using an inducible SEAP (secreted embryonic alkaline phosphatase) reporter gene under the control of the IFN-β minimal promoter fused to five NF-κB and AP-1-binding sites. Briefly, cells are seeded into Greiner 384 well plates (15000 cells per well for TLR7, 20,000 for TLR8 and 25,000 for TLR9) and then treated with test compounds in DMSO to yield a final dose response concentration range of 0.05 nM-50 μM. After a 30 minute compound pre-treatment at room temperature, the cells are then stimulated with a TLR7 ligand (gardiquimod at a final concentration of 7.5 μM). TLR8 ligand (R848 at a final concentration of 15.9 μM) or TLR9 ligand (ODN2006 at a final concentration of 5 nM) to activate NF-κB and AP-1 which induce the production of SEAP. After a 22 hour incubation at 37° C., 5% CO2, SEAP levels are determined with the addition of HEK-Blue™ Detection reagent (Invivogen), a cell culture medium that allows for detection of SEAP, according to manufacturer's specifications. The percent inhibition is determined as the % reduction in the HEK-Blue signal present in wells treated with agonist plus DMSO alone compared to wells treated with a known inhibitor.

human TLR8 = target: T2, human TLR8 (Homo sapiens, UniProt Q9NR97); assay: TLR8 inhibition reporter assay (HEK-Blue SEAP); conditions: cells overexpressing human TLR8, SEAP reporter, stimulated with R848 15.9 μM, 22 hour incubation
T2 construct: host or cells: HEK-Blue cells
T2 sequence (Q9NR97 27-1041): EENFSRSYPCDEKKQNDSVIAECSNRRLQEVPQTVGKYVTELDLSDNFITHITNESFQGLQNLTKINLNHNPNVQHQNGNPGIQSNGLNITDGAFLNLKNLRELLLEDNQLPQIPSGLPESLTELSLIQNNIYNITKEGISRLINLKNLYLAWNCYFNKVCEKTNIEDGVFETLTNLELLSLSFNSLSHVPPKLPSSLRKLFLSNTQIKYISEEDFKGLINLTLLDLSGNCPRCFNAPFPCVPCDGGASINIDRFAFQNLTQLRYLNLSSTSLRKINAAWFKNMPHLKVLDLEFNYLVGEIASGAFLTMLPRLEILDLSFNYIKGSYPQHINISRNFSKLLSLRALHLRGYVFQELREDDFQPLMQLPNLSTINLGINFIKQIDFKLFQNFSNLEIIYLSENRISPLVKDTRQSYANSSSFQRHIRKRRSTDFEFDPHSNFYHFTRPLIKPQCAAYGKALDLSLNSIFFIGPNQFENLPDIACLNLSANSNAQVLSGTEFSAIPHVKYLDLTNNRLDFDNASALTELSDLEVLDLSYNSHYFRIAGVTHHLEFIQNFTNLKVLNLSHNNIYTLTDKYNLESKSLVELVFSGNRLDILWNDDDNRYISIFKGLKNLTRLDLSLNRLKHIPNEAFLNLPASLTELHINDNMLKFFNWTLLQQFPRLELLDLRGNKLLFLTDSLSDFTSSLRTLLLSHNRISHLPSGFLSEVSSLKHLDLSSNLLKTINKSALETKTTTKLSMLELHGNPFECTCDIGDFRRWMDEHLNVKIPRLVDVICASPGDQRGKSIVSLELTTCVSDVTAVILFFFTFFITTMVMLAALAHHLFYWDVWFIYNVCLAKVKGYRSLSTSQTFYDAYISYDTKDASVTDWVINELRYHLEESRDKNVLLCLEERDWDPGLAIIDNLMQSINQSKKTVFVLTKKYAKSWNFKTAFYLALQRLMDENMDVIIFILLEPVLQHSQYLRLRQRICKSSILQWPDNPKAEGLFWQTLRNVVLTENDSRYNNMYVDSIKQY
Method: as §1, §2

human TLR9 = target: T3, human TLR9 (Homo sapiens, UniProt Q9NR96); assay: TLR9 inhibition reporter assay (HEK-Blue SEAP); conditions: cells overexpressing human TLR9, SEAP reporter, stimulated with ODN2006 5 nM, 22 hour incubation
T3 construct: host or cells: HEK-Blue cells
T3 sequence (Q9NR96 26-1032): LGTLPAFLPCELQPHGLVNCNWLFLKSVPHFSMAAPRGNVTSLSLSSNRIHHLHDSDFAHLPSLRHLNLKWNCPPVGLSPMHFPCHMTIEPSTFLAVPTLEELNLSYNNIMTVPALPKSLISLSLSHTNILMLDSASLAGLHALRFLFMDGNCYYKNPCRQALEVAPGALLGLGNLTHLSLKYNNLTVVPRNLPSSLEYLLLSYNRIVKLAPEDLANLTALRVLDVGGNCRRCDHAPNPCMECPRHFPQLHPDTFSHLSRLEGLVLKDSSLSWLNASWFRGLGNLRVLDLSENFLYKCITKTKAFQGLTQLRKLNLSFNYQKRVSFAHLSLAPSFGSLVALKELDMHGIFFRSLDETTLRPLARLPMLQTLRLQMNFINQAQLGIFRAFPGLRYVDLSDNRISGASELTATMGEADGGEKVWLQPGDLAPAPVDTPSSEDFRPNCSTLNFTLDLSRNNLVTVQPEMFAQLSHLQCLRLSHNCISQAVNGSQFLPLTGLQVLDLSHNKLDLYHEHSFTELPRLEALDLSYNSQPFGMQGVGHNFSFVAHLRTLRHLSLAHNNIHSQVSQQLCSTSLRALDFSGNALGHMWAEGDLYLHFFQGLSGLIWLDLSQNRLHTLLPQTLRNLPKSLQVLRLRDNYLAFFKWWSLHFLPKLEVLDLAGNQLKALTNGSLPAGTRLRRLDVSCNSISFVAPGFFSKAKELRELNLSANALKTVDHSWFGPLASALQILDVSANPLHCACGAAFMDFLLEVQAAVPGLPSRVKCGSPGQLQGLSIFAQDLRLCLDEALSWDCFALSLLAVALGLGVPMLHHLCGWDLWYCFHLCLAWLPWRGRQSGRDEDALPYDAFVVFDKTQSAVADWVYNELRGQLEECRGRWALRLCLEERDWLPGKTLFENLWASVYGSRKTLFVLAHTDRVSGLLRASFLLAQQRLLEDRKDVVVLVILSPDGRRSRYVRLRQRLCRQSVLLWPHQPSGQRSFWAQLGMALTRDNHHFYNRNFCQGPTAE
Method: as §1, §2

| IC50 (human TLR7) | IC50 (human TLR8) | IC50 (human TLR9) | SMILES |
| --- | --- | --- | --- |
| 100 to 1000 nM | 1000 to 50000 nM | 100 to 1000 nM | CCc1c(-c2ccc(OC)c(OC)c2)[nH]c2nnc(C3CCNCC3)cc12 [Example 1, 6-(3,4-dimethoxyphenyl)-5-ethyl-3-(piperidin-4-yl)-7H-pyrrolo[2,3-c]pyridazine] |
| 100 to 1000 nM | 100 to 1000 nM | 100 to 1000 nM | CCc1c(-c2ccc(OC)c(OC)c2)[nH]c2nnc(C3CCN(C4CCN(C(C)C)CC4)CC3)cc12 [Example 2, 6-(3,4-dimethoxyphenyl)-5-ethyl-3-(1′-isopropyl-[1,4′-bipiperidin]-4-yl)-7H-pyrrolo[2,3-c]pyridazine] |
| 100 to 1000 nM | 100 to 1000 nM | 100 to 1000 nM | CCc1c(-c2ccc(OC)c(OC)c2)[nH]c2ncc(C3CCNCC3)nc12 [Example 3, 6-(3,4-dimethoxyphenyl)-7-ethyl-2-(piperidin-4-yl)-5H-pyrrolo[2,3-b]pyrazine] |
| 100 to 1000 nM | 100 to 1000 nM | 1000 to 50000 nM | CCc1c(-c2ccc(OC)c(OC)c2)[nH]c2ncc(C3CCN(C(=O)CN(C)C)CC3)nc12 [Example 4, 1-(4-(6-(3,4-dimethoxypbenyl)-7-ethyl-5H-pyrrolo[2,3-b]pyrazin-2-yl)piperidin-1-yl)-2-(dimethylamino)ethanone] |
| < 100 nM | 100 to 1000 nM | 100 to 1000 nM | CCc1c(-c2ccc(OC)c(OC)c2)[nH]c2ncc(C3CCN(C4CCN(C(C)C)CC4)CC3)nc12 [Example 5, 6-(3,4-ditnethoxyphenyl)-7-ethyl-2-(1′-isopropyl-[1,4′-bipiperidin]-4-yl)-5H-pyrrolo[2,3-b]pyrazine] |
| 100 to 1000 nM | 100 to 1000 nM | 100 to 1000 nM | COc1ccc(-c2[nH]c3cnc(C4CCN(C5CCN(CC(C)C)CC5)CC4)nc3c2C)cc1OC [Example 6, 6-(3,4-dimethoxyphenyl)-2-(1′-isobutyl-[1,4′-bipiperidin]-4-yl)-7-methyl-5H-pyrrolo[3,2-d]pyrimidine] |
| < 100 nM | 100 to 1000 nM | 1000 to 50000 nM | Cc1cc(-c2[nH]c3cnc(C4CCNCC4)nc3c2C(C)C)cn(C)c1=O [Example 7, 5-(7-isopropyl-2-(piperidin-4-yl)-5H-pyrrolo[3,2-d]pyrimidin-6-yl)-1,3-dimethylpyridin-2(1H)-one] |
| < 100 nM | < 100 nM | 1000 to 50000 nM | Cc1cc(-c2[nH]c3cnc(C4CCN(C5COC5)CC4)nc3c2C(C)C)cn(C)c1=O [Example 8, 5-(7-isopropyl-2-(1-(oxetan-3-yl)piperidin-4-yl)-5H-pyrrolo[3,2-d]pyrimidin-6-yl)-1,3-dimethylpyridin-2(1H)-one] |
| < 100 nM | < 100 nM | 1000 to 50000 nM | CNC(=O)CN1CCC(c2ncc3[nH]c(-c4cn5ncnc5c(C)c4C)c(C(C)C)c3n2)CC1 [Example 9, 2-(4-(6-(7,8-dimethyl-[1,2,4]triazolo[1,5-a]pyridin-6-yl)-7-isopropyl-5H-pyrrolo[3,2-d]pyrimidin-2-yl)piperidin-1-yl)-N-methylacetamide] |
| < 100 nM | < 100 nM | 1000 to 50000 nM | Cc1c(-c2[nH]c3cnc(C4CCN(CC(=O)N(C)C)CC4)nc3c2C(C)C)cn2ncnc2c1C [Example 10, 2-(4-(6-(7,8-dimethyl-[1,2,4]triazolo[1,5-a]pyrimidin-6-yl)-7-isopropyl-5H-pyrrolo[3,2-d]pyrimidin-2-yl)piperidin-1-yl)-N,N-dimethylacetantide] |
| < 100 nM | < 100 nM | 1000 to 50000 nM | COc1cc(-c2[nH]c3cnc(C4CCN(C(=O)CN(C)C)CC4)nc3c2C(C)C)cn2ncnc12 [Example 11, 2-(dirnethylamino)-1-(4-(7-isopropyl-6-(8-methoxy-[1,2,4]triazolo[1,5-a]pyridin-6-yl)-5H-pyrrolo[3,2-d]pyrimidin-2-yl)piperidin-1-yl)ethan-1-one] |
| < 100 nM | < 100 nM | 1000 to 50000 nM | Cc1cc(-c2[nH]c3cnc(C4CCN(C5CCOC5)CC4)nc3c2C(C)C)cn(C)c1=O (stereo not drawn) [Example 12, 5-(7-isopropyl-2-(1-(tetrahydrofuran-3-yl)piperidin-4-yl)-5H-pyrrolo[3,2-d]pyrimidin-6-yl)-1,3-dirnethylpyridin-2(1H)-one] |

— patent publication US11299501B2 (BRISTOL-MYERS SQUIBB COMPANY, priority 2017, dated 2022)
